Results reported in ChEMBL document CHEMBL3832073, “DailyMed|setid=217e52b5-3a7b-4bbe-af3c-b18de7d426c3 | ABILIFY - aripiprazole tablet|Rebel Distributors Corp”.

Key:
[1] = Evaluation of pharmacokinetic parameters for Aripiprazole following oral, intravenous or intramuscular administration of azipiprazole.; assay type: ADME, organism-based; conditions: human, in vivo, dosed compound id 19, dosed compound name ARIPIPRAZOLE, tissue Plasma
[2] = Evaluation of pharmacokinetic parameters for Aripiprazole following single oral administration of azipiprazole.; assay type: ADME, organism-based; conditions: human, in vivo, dosed compound id 19, dosed compound name ARIPIPRAZOLE, regimen Single dose, tissue Plasma

Compound O=C1CCc2ccc(OCCCCN3CCN(c4cccc(Cl)c4Cl)CC3)cc2N1 [ARIPIPRAZOLE] has a bioavailability ([1]; im, at 5 mg, gender male and female, route intramuscular) of 100%, a Tmax ([1]; im, gender male and female, route intramuscular) of 1 h and a Vd ([1]; route iv, read-out: Vss) of 404 L. The Tmax [2] was 3 to 5 h.
